Experiment: xn = mol fraction of the nth substance listed

Oc1ccc2ccccc2c1 + CCCCO
viscosity [mPa·s], 101 kPa
Settings | x1 = 0.04 | x1 = 0.08 | x1 = 0.12 | x1 = 0.16 | x1 = 0.2
293.15 K | 3.344 | 3.751 | 4.242 | 4.879 | 5.596
303.15 K | 2.529 | 2.808 | 3.17 | 3.582 | 4.024
313.15 K | 1.974 | 2.175 | 2.421 | 2.751 | 3.144
323.15 K | 1.592 | 1.712 | 1.882 | 2.11 | 2.374

COCCOCCOCCOC + CC1COC(=O)O1
298.15 K, 101.33 kPa
Settings | viscosity [mPa·s]
x1 = 0.0049 | 2.492
x1 = 0.0113 | 2.496
x1 = 0.0249 | 2.504
x1 = 0.0352 | 2.516
x1 = 0.0525 | 2.523
x1 = 0.0833 | 2.536
x1 = 0.1358 | 2.56
x1 = 0.1928 | 2.568
x1 = 0.2559 | 2.561
x1 = 0.3083 | 2.543
x1 = 0.3356 | 2.539
x1 = 0.393 | 2.494
x1 = 0.466 | 2.444
x1 = 0.4902 | 2.428
x1 = 0.5272 | 2.402
x1 = 0.5728 | 2.361
x1 = 0.6242 | 2.308
x1 = 0.6786 | 2.254
x1 = 0.7038 | 2.227
x1 = 0.8165 | 2.127
x1 = 0.8598 | 2.088
x1 = 0.8959 | 2.047
x1 = 0.9347 | 2.021
x1 = 0.964 | 1.99

COCCOCCOCCO + CCCO
viscosity [mPa·s], 101 kPa
Settings | 298.15 K | 308.15 K | 318.15 K
x1 = 0.0134 | 1.952 | 1.526 | 1.246
x1 = 0.0366 | 1.983 | 1.555 | 1.273
x1 = 0.0639 | 2.034 | 1.604 | 1.32
x1 = 0.1165 | 2.159 | 1.692 | 1.4
x1 = 0.1568 | 2.273 | 1.786 | 1.484
x1 = 0.2037 | 2.434 | 1.894 | 1.576
x1 = 0.2664 | 2.652 | 2.064 | 1.715
x1 = 0.3205 | 2.847 | 2.213 | 1.851
x1 = 0.3498 | 3.007 | 2.328 | 1.927
x1 = 0.3669 | 3.042 | 2.349 | 1.973
x1 = 0.4076 | 3.264 | 2.495 | 2.085
x1 = 0.4623 | 3.514 | 2.678 | 2.228
x1 = 0.5601 | 4 | 3.021 | 2.51
x1 = 0.6022 | 4.21 | 3.158 | 2.624
x1 = 0.6441 | 4.433 | 3.312 | 2.741
x1 = 0.7071 | 4.778 | 3.545 | 2.921
x1 = 0.7635 | 5.059 | 3.746 | 3.074
x1 = 0.8228 | 5.311 | 3.929 | 3.238
x1 = 0.8494 | 5.452 | 4.008 | 3.312
x1 = 0.9137 | 5.74 | 4.23 | 3.489
x1 = 0.9358 | 5.875 | 4.299 | 3.55
x1 = 0.961 | 6.08 | 4.384 | 3.616
